Experiment: Inhibition of Her2 in SKBr3 cells by ELISA

IC50 [µM] | Structure (SMILES)
31 | O=S(=O)(Nc1ccc(Cl)cc1O)c1ccccc1
61 | CC1(C)CC(=O)C2C(=Nc3ccccc3NC2c2cccc(O)c2O)C1 (stereo not drawn) [3-(1-hydroxy-3,3-dimethyl-3,4,10,11-tetrahydro-2H-dibenzo[b,e][1,4]diazepin-11-yl)-benzene-1,2-diol]
18 | COc1cc(C2CC(c3ccccc3O)N=N2)ccc1O (stereo not drawn) [6-[5-(4-hydroxy-3-methoxyphenyl)-3-pyrazolidinylidene]-1-cyclohexa-2,4-dienone]
